Laboratory results published in paper PMC11694070, “Development of 6-amido-4-aminoisoindolyn-1,3-diones as p70S6K1 inhibitors and potential breast cancer therapeutics” (Frontiers in Molecular Biosciences, 2024).

Assays:
p70S6K1 = p70S6K1 (Homo sapiens, UniProt P23443); assay: Z′-LYTE biochemical kinase inhibition assay (SelectScreen, Thermo Fisher); conditions: for inhibition at 10 µM: 10 µM compound concentration, high-throughput single-concentration screen; for IC50 / IC50 of inhibition of p70S6K1: 10-point titration, 3-fold dilutions from 25 μM
Chain of p70S6K1 (P23443 24-525): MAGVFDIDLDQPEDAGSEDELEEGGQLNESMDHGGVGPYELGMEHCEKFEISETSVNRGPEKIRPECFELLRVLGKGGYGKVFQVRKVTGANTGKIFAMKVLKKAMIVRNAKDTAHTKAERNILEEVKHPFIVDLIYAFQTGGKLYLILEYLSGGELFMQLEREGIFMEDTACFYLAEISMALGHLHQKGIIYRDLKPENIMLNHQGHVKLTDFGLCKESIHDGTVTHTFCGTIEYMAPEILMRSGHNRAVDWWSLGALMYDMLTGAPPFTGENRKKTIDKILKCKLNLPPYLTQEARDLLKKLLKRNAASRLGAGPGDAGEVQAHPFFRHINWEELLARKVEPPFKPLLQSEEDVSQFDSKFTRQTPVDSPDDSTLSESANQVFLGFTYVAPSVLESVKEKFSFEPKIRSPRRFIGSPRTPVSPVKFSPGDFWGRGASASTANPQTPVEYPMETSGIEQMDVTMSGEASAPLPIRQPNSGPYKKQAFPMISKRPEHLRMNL
Description: The high-throughput and dose-response curve assays against kinases were performed using the services of SelectScreen™ Biochemical Kinase Profiling Service by Thermo Fisher Scientific (Table 2; Supplementary Figure S13). The Z ´-LYTE biochemical assay employs a fluorescence-based, coupled-enzyme format based on the differential sensitivity of phosphorylated and non-phosphorylated peptides to proteolytic cleavage. The peptide substrate is labeled with two fluorophores—one at each end—that make up a fluorescence resonance energy transfer (FRET) pair. In the primary reaction, the kinase transfers the gamma-phosphate of ATP to a single tyrosine, serine, or threonine residue in a synthetic FRET-peptide. In the secondary reaction, a site-specific protease recognizes and cleaves non-phosphorylated FRET peptides. Phosphorylation of FRET-peptides suppresses cleavage by the development reagent. Cleavage disrupts FRET between the donor (i.e., coumarin) and acceptor (i.e., fluorescein) fluorophores on the FRET-peptide, whereas uncleaved, phosphorylated FRET-peptides maintain FRET. A ratiometric method, which calculates the emission ratio of donor emission to acceptor emission after excitation of the donor fluorophore at 400 nm, is used to quantitate reaction progress, as shown in the equation below.” Emission ratio=Coumarin emission 445 nm/Flourescein emission 520 nm.
The test compounds were screened in 1% DMSO (final) in the well. For 10-point titrations, 3-fold serial dilutions were conducted from the starting concentration of 25 μM.
All peptide/kinase mixtures are diluted to a 2× working concentration in the appropriate kinase Buffer. The 2X RPS6KB1 (p70S6K)/Ser/Thr 07 mixture is prepared in 50 mM HEPES pH 7.5, 0.01% BRIJ-35, 10 mM MgCl2, 1 mM EGTA. The final 10 µL kinase reaction consists of 2.87–17.7 ng RPS6KB1 (p70S6K) and 2 µM Ser/Thr 07 in 50 mM HEPES pH 7.5, 0.01% BRIJ-35, 10 mM MgCl2, 1 mM EGTA. After the 1 h kinase reaction incubation, 5 µL of a 1:45000 dilution of Development Reagent A is added.
All ATP Solutions are diluted to a 4X working concentration in kinase buffer (50 mM HEPES pH 7.5, 0.01% BRIJ-35, 10 mM MgCl2, 1 mM EGTA). ATP Km apparent was previously determined using a Z′-LYTE assay.
Bar-coded Corning, low volume NBS, black 384-well plate (Corning Cat. #4514). • 1. 100 nL 100X test compound in 100% DMSO • 2. 2.4 µL kinase buffer • 3. 5 μL 2X peptide/kinase mixture • 4. 2.5 µL 4X ATP solution • 5. 30-s plate shake • 6. 60-min kinase reaction incubation at room temperature • 7. 5 μL Development Reagent solution • 8. 30-s plate shake • 9. 60-min Development Reaction incubation at room temperature • 10. Read on the fluorescence plate reader and analyze the data
The SelectScreenTM Biochemical Kinase Profiling Service by ThermoFisher Scientific was used to perform a high-throughput kinase inhibition assay at a single concentration as well as 10-point titrations to generate the dose-response curves for IC50 calculations. The Z′-LYTE biochemical assay, which is a FRET-based assay, was used to analyze the compounds for p70S6K1 inhibition. Compounds 5a–f were subjected to an initial high-throughput screening against p70S6K1 at 10 µM concentration (Table 1).

[1] = system: rpS6 phosphorylation (S235/236, S240/244); assay: Western blot of rpS6 and phospho-rpS6 in MCF7 cells; assay type: cell-based, Human; conditions: MCF7 cells estrogen deprived, 5 µM and 10 µM, with β estradiol, 24 h and 48 h
Description: Total proteins were isolated using standard protocols as previously described ([Greenberg et al., 2022]; [Kim H. et al., 2013]). In brief, ice-cold RIPA lysis buffer containing phosphatase and protease inhibitors (Santa Cruz Biotechnology, Dallas, TX, USA) was used to lyse cells. The clarified lysate protein concentration was measured using Bradford reagent (Thermo Scientific, Waltham, MA, USA). The proteins were separated using a 4%–20% SDS-PAGE gradient gel and transferred onto a PVDF membrane (Bio-Rad, Hercules, CA, USA). A 1X blocking buffer was used to block the non-specific binding sites. The membranes were washed with Tris-buffered saline (Bio-Rad) containing 0.1% Tween-20 (Sigma-Aldrich, St. Louis, MO, USA). Membranes were incubated overnight with primary antibodies at 4°C. […] Immune complexes were detected with appropriate secondary antibodies from Invitrogen (Camarillo, CA, USA) and Clarity Western ECL Substrate (Bio-Rad), as described ([Greenberg et al., 2022]). […] Results were expressed as the standard error of the mean (±SEM). Significant changes from controls or E2 treated group were determined by a two-tailed Student’s t-test, and p-values of <0.05 were considered significant. […]

MCF7 E3 cells = assay: MCF-7 E3 cell proliferation assay (alamarBlue); assay type: cell-based; conditions: Homo sapiens, 10 μM compound, in the presence of E2 (10^−10 M), estrogen-deprived cells
Description: Human breast tumor cells MCF-7 subclone E3 were routinely maintained in DMEM medium (Mediatech) supplemented with non-essential amino acid (Gibco), sodium pyruvate (Gibco), L-glutamine (Gibco), gentamicin (Gibco), and 10% fetal bovine serum (FBS) (Hyclone). For the proliferation experiment, the MCF-7 monolayer was dispersed into suspension in DMEM medium with 10% FBS, and 5 × 10^5 cells were seeded into a T-25 flask. The medium was aspirated from the cells, washed with phosphate buffer saline, and cultured with DMEM medium containing dextran-coated charcoal (DCC) FBS for 6 days. After 6 days, the cells were dispersed into suspension, counted, and 1.8 × 10^4 cells per well in a 100 µL DCC medium was subcultured into 96-well plates. After 24 h incubation, the medium was aspirated and replaced with the test compound at 10^−5 M. The cells were dosed again after 3 days and grown for another 3 days. Measurement for cell proliferation was performed with alamarBlue (Bio-Rad) on a plate reader (BioTek Synergy Neo2) with 560 nm excitation and 590 nm emission. The experiments were performed in quadruplicate.
The MCF7 cell line is often used in studies involving ERα overexpressing BC. It is well-established that overexpression of estrogen leads to overexpression of p70S6K1 due to the costimulatory relationship between them, thereby driving the progression of BC ([Fullwood et al., 2009]; [Maruani et al., 2012]). The knockdown or absence of estrogen was partially abrogated by p70S6K1 rescuing and promoting ERα activity ([Holz, 2012]; [Yamnik et al., 2009]). For these reasons, MCF7 cells were used for the proliferation studies in the presence of our p70S6K1 inhibitors. MCF7 E3 cells were grown under estrogen-deprived conditions and treated with 10 μM concentrations of the compounds with and without E2 (10^−10 M). The proliferation was measured using alamarBlue (Figure 5). Compound 5b, with the best p70S6K1 inhibition potency of 0.4 μM IC50 value, inhibited the proliferation of MCF7 E3 cells by 60% in the presence of E2. […] The trend of MCF7 E3 proliferation was directly proportional to the p70S6K1 inhibition potency.

[2] = design: method as in Li et al., 2010; Motzer et al., 2015; Tolcher et al., 2014; conditions: given with erlotinib and everolimus; ref Li et al., 2010; Motzer et al., 2015; Tolcher et al., 2014; cited from earlier work
[3] = design: method as in Pearce et al., 2010; Segatto et al., 2016; conditions: ref Pearce et al., 2010, Segatto et al., 2016, cited from earlier work
cervical cancer cells = system: cervical cancer cells; design: method as in Nam et al., 2019; conditions: ref Nam et al., 2019; cited from earlier work

| SMILES | inhibition at 10 µM (p70S6K1) [%] | IC50 (p70S6K1) [nM] | IC50 of inhibition of p70S6K1 (p70S6K1) | inhibition at 10 µM (MCF7 E3 cells) [%] | further results |
| --- | --- | --- | --- | --- | --- |
| Nc1cc(N)c2c(c1)C(=O)NC2=O [Compound 4, 4,6-diaminoisoindoline-1,3-dione] | 70 | 1200 |  |  |  |
| Nc1cc(NC(=O)Cc2ccccc2)cc2c1C(=O)NC2=O [Compound 5b, N-(7-amino-1,3-dioxoisoindolin-5-yl)-2-phenylacetamide] | > 90 | 400 | sub-micromolar | 60 | rpS6 protein expression and phosphorylation (S235/236, S240/244), immunoblot band intensity [1]: significant decreases |
| Nc1cc(NC(=O)Cc2ccc(C(F)(F)F)cc2)cc2c1C(=O)NC2=O [Compound 5c, N-(7-amino-1,3-dioxoisoindolin-5-yl)-2-(4-(trifluoromethyl)phenyl)acetamide] | 80 | 5450 |  | 35 |  |
| Nc1cc(NC(=O)Cc2cccc(C(F)(F)F)c2)cc2c1C(=O)NC2=O [Compound 5d, N-(7-amino-1,3-dioxoisoindolin-5-yl)-2-(3-(trifluoromethyl)phenyl)acetamide] | > 90 | 510 | sub-micromolar | 56 |  |
| Nc1cc(NC(=O)C23CC4CC(CC(C4)C2)C3)cc2c1C(=O)NC2=O [Compound 5e, N-(7-amino-1,3-dioxoisoindolin-5-yl)adamantane-1-carboxamide] | 22 |  |  |  |  |
| Nc1cc(NC(=O)Cc2ccc(Br)cc2)cc2c1C(=O)NC2=O [Compound 5f, N-(7-amino-1,3-dioxoisoindolin-5-yl)-2-(4-bromophenyl)acetamide] | 93 | 750 | sub-micromolar | 40 |  |
| Cn1cc(-c2ccc(F)c(C(F)(F)F)c2)nc1C1CCN(c2ncnc3[nH]ncc23)CC1 [LY-2584702] |  |  |  |  | tolerability in Phase I trials [2]: not well-tolerated |
| CCc1cncnc1N1CCN(Cc2nc3cc(C(F)(F)F)ccc3[nH]2)CC1 [PF-4708671] |  |  |  |  | tolerability in preclinical studies ([3]; preclinical studies for breast cancer): well-tolerated; blood–brain barrier (BBB) penetration [3]: poor blood–brain barrier (BBB) penetrant |
| COC(=O)[C@@H](Cc1ccc(O)c(O)c1)OC(=O)/C=C/c1ccc(O)c(O)c1 [Rosmarinic acid methyl ester] |  |  |  |  | autophagy and apoptotic cell death (cervical cancer cells): increase in autophagy and apoptotic cell death |
